Experimental data as given in EPA's ToxRefDB 2.

Assays:
rat [1] = settings: Subchronic dermal toxicity, fischer, Topical, dose end: 13 week, group: systemic
rat [2] = settings: Combined chronic toxicity/carcinogenicity, wistar, Oral, Feed, dose end: 24 month, group: systemic
dog [3] = settings: Chronic toxicity; beagle; Oral; Feed; dose end: 52 week; group: systemic; systemic / hematology / erythrocyte (rbc) count differential / erythrocyte (rbc) + systemic / hematology / heinz body / heinz body + …
mouse [4] = settings: Subchronic oral toxicity in rodents, b6c3f1, Feed, dose end: 14 week, group: systemic, systemic / clinical chemistry / bilirubin / total bilirubin + systemic / clinical chemistry / cholesterol / cholesterol + systemic / …
dog [5] = settings: Subchronic oral toxicity in nonrodent, beagle, Feed, dose end: 90 day, group: systemic
rat [6] = settings: Multigenerational reproductive toxicity study, sprague dawley, Oral, Feed, dose end: 2 generation
rabbit = settings: Prenatal developmental toxicity study, other, Oral, Gavage/Intubation, dose end: 18 GD
mouse [7] = settings: Carcinogenicity; b6c3f1; Oral; Feed; dose end: 2 year; group: systemic; systemic / organ weight / kidney / nos + systemic / pathology microscopic / kidney / vacuolization + systemic / organ weight / kidney / …
rat [8] = settings: Subchronic oral toxicity in rodents, wistar, Feed, dose end: 90 day, group: systemic
[9] = systemic / pathology microscopic / skin / inflammation
[10] = systemic / pathology microscopic / skin / inflammation + systemic / in life observation / clinical signs / desquamation + systemic / in life…
[11] = systemic / clinical chemistry / lactic acid dehydrogenase (ldh) / lactic acid dehydrogenase (ldh)
[12] = systemic / hematology / heinz body / heinz body
[13] = systemic / hematology / heinz body / heinz body + systemic / clinical chemistry / alkaline phosphatase (alp/alk) / alkaline phosphatase (alp…
[14] = group: offspring, systemic / in life observation / body weight / offspring (pup) weight
[15] = group: offspring, systemic / in life observation / body weight / offspring (pup) weight + developmental / offspring survival late / [other] / [other]
[16] = group: parental, systemic / clinical chemistry / alkaline phosphatase (alp/alk) / alkaline phosphatase (alp/alk) + systemic / clinical chemistry / creatinine…
[17] = group: developmental, developmental / developmental malformation / bone / unossified + systemic / in life observation / body weight / fetal weight
[18] = group: maternal, systemic / in life observation / body weight / body weight gain + systemic / in life observation / clinical signs / scybala + systemic / in …
[19] = systemic / clinical chemistry / alanine aminotransferase (alt/sgpt) / alanine aminotransferase (alt/sgpt) + systemic / in life observation…
[20] = systemic / organ weight / liver / absolute + systemic / organ weight / liver / relative to body weight

In the case of `CCCCCCCCCCSCCN.Cl` [2-(Decylthio)ethanamine hydrochloride], the LOAEL (rat [1]; [9]) is reported as 1 mg/kg/day, the NOAEL (rat [1]; [9]) is reported as < 1 mg/kg/day and the LEL (rat [1]; [10]) is reported as 1 mg/kg/day. For the same compound, the NEL (rat [1]; [10]) was < 1 mg/kg/day.

With `CC1(C(=O)Nc2ccc(O)c(Cl)c2Cl)CCCCC1` [Fenhexamid] the LEL (rat [2]; [11]) was 28 mg/kg/day, the NEL (rat [2]; [11]) was < 28 mg/kg/day and the NOAEL (rat [2]; systemic / clinical chemistry / lactic acid dehydrogenase (ldh) / lactic acid dehydrogenase (ldh) + systemic / pathology microscopic / …) was 28 mg/kg/day. For the same compound, the LOAEL (rat [2]; systemic / pathology microscopic / intestine large / hyperplasia + systemic / pathology microscopic / spleen / hematopoietic cell …) was 292 mg/kg/day, the LEL (dog [3]) was 124 mg/kg/day and the LOAEL (dog [3]) was 124 mg/kg/day. It also gave an NEL (dog [3]) of 17.4 mg/kg/day, an NOAEL (dog [3]) of 17.4 mg/kg/day and an LEL (mouse [4]) of 3280 mg/kg/day. It also gave an LOAEL (mouse [4]) of 3280 mg/kg/day, an NEL (mouse [4]) of 266 mg/kg/day and an NOAEL (mouse [4]) of 266 mg/kg/day. For the same compound, the LEL (dog [5]; [12]) was 239 mg/kg/day, the LOAEL (dog [5]; [12]) was 239 mg/kg/day and the NEL (dog [5]; [13]) was 33.9 mg/kg/day. It also gave an NOAEL (dog [5]; [13]) of 33.9 mg/kg/day, an LEL (rat [6]; [14]) of 406 mg/kg/day and an LOAEL (rat [6]; [14]) of 406 mg/kg/day. For the same compound, the NEL (rat [6]; [15]) was 38.2 mg/kg/day, the NOAEL (rat [6]; [15]) was 38.2 mg/kg/day and the LEL (rat [6]; [16]) was 406 mg/kg/day. The LOAEL (rat [6]; [16]) was 406 mg/kg/day, the NEL (rat [6]; [16]) was 38.2 mg/kg/day and the NOAEL (rat [6]; [16]) was 38.2 mg/kg/day. The LEL (rabbit; [17]) was 1000 mg/kg/day, the LOAEL (rabbit; [17]) was 1000 mg/kg/day and the NEL (rabbit; [17]) was 300 mg/kg/day. The NOAEL (rabbit; [17]) was 300 mg/kg/day, the LEL (rabbit; [18]) was 300 mg/kg/day and the LOAEL (rabbit; [18]) was 300 mg/kg/day. It also gave an NEL (rabbit; [18]) of 100 mg/kg/day, an NOAEL (rabbit; [18]) of 100 mg/kg/day and an LEL (mouse [7]) of 807 mg/kg/day. For the same compound, the LOAEL (mouse [7]) was 807 mg/kg/day, the NEL (mouse [7]) was 247 mg/kg/day and the NOAEL (mouse [7]) was 247 mg/kg/day. It also gave an LOAEL (rat [8]; [19]) of 904 mg/kg/day, an NOAEL (rat [8]; [19]) of 415 mg/kg/day and an LEL (rat [8]; [20]) of 202 mg/kg/day. The NEL (rat [8]; [20]) was < 202 mg/kg/day.
